# Data reported in patent US20230113037A1 (Bayer Aktiengesellschaft, priority 2019, published 2023).
# Where two headings read alike, the source gives them in different places.
# How the values were obtained:
# AHR [1] = target: T1, AHR (Homo sapiens, UniProt P35869); experiment: In vitro assay 1: antagonism in human cell line (AHR transactivation, firefly luciferase reporter, kynurenic acid prestimulated); assay type: cell-based; settings: AHR Antagonism Human IC50 [M]
# T1 construct: U87 MG glioblastoma cells (ATCC #HTB-14) endogenously expressing AHR; endogenous in cells; host or cells: U87 MG glioblastoma cells (ATCC #HTB-14)
# T1 sequence (P35869 11-848): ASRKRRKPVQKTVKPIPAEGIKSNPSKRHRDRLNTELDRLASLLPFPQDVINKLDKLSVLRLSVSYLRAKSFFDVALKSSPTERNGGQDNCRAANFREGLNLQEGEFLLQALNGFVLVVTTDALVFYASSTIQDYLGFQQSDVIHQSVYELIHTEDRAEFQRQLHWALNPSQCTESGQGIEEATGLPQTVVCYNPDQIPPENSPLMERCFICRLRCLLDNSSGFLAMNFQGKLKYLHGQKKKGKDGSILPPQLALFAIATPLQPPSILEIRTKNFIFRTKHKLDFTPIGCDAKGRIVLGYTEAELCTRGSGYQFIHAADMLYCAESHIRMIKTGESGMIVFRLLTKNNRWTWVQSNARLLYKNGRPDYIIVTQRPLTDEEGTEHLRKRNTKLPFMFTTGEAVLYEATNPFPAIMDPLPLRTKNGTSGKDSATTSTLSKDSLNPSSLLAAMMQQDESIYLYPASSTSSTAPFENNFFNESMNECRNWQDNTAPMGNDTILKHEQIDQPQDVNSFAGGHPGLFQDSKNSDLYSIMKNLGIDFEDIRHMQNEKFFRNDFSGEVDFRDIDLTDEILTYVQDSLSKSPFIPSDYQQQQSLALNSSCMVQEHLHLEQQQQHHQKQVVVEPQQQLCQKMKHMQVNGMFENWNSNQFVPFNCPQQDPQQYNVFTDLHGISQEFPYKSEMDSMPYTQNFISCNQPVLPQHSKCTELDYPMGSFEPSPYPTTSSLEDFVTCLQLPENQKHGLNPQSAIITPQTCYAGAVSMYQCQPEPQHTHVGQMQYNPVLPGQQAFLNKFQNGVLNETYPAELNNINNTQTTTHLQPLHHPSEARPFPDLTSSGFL
# Procedure, shortened: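 U87 MG + DRE-firefly/constitutive-Renilla stable reporters; kynurenic acid prestim; dual-luc read; Renilla = tox; normalized vs pos/neg controls (pos: 150 μM KYNA + 5 μM staurosporine).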
# AHR [2] = target: T2, AHR (Mus musculus, UniProt P30561); experiment: In vitro assay 3: antagonism in mouse cell line (AHR transactivation, firefly luciferase reporter, kynurenic acid prestimulated); assay type: cell-based
# T2 sequence (P30561 1-848 P471L/N533S/M589L): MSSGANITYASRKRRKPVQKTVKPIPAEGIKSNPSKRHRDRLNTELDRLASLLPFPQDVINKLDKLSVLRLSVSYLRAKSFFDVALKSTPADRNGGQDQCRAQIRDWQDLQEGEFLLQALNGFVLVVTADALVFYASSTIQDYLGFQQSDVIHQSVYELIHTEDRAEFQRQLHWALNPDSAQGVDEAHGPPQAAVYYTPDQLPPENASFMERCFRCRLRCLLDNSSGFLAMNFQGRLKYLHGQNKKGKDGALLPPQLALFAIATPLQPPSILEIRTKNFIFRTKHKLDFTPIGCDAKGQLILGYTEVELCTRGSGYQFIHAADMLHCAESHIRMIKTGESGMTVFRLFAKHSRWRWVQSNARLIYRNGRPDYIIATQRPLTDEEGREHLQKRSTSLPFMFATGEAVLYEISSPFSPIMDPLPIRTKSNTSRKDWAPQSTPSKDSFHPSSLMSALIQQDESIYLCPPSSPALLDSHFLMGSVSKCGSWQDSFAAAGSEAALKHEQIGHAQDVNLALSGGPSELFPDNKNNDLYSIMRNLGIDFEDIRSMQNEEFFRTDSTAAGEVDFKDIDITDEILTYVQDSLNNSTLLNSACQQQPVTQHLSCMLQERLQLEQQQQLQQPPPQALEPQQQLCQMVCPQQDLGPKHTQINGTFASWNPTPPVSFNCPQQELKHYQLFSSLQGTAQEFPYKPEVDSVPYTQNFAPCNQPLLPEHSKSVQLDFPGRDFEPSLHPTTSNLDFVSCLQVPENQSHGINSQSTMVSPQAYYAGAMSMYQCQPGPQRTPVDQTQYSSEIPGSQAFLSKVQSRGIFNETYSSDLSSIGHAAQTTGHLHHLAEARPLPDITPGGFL
# Procedure, shortened: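 Mouse cells stably carrying a DRE-driven AHR-inducible firefly luciferase reporter were prestimulated with the endogenous agonist kynurenic acid before compound addition. Luciferase read by SteadyGlo; cells without kynurenic acid served as full-inhibition control, with normalization to positive and negative controls. Repeat tests reported as mean or median.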
# [3] = mouse Hepa 1c1c7 cells, 200 μM kynurenic acid, 20 hours, read-out: AHR Antagonism Mouse IC50
SMILES,IC50 (AHR [1]) [M],IC50 (AHR [2]; [3]) [nM],"IC50 (AHR [2]; read-out: AHR Antagonism Mouse IC50, mouse Hepa 1c1c7 cells, 200 μM kynurenic acid, 20 hours) [nM]"
"Cc1c(-c2nc3c4ccccc4nc(N[C@@H]4CCCCNC4=O)n3n2)cnn1C [Example 68, (3R)-3-{[2-(1,5-dimethyl-1H-pyrazol-4-yl)[1,2,4]triazolo[1,5-c]quinazolin-5-yl]amino}azepan-2-one]",1.03e-08,,8.57
"O=C1NCCCC[C@H]1Nc1nc2ccccc2c2nc(-c3cn[nH]c3)nn12 [Example 69, (3R)-3-{[2-(1H-pyrazol-4-yl)[1,2,4]triazolo[1,5-c]quinazolin-5-yl]amino}azepan-2-one]",3.59e-07,460,
"COc1cccc(-c2nc3c4ccccc4nc(NC4CCCNC4=O)n3n2)c1 (stereo not shown) [Example 77, 3-{[2-(3-methoxyphenyl)[1,2,4]triazolo[1,5-c]quinazolin-5-yl]amino}piperidin-2-one]",6.52e-08,52.1,
COc1cccc(-c2nc3c4ccccc4nc(N[C@@H](C)C(N)=O)n3n2)c1 [Example 81],4.02e-07,287,
"COc1cccc(-c2nc3c4ccccc4nc(N[C@H](C(N)=O)C(C)C)n3n2)c1 [Example 83, N^2-[2-(3-methoxyphenyl)[1,2,4]triazolo[1,5-c]quinazolin-5-yl]-L-valinamide]",6.99e-07,115,
"COc1cccc(-c2nc3c4ccccc4nc(N[C@@H](Cc4ccc(O)cc4)C(N)=O)n3n2)c1 [Example 84, N^2-[2-(3-methoxyphenyl)[1,2,4]triazolo[1,5-c]quinazolin-5-yl]-L-tyrosinamide]",1.01e-06,1380,
"COc1cccc(-c2nc3c4ccccc4nc(N[C@@H](CO)C(N)=O)n3n2)c1 [Example 85, N^2-[2-(3-methoxyphenyl)[1,2,4]triazolo[1,5-c]quinazolin-5-yl]-L-serinamide]",4.95e-07,229,
"COc1cccc(-c2nc3c4ccccc4nc(NC4(C(N)=O)COC4)n3n2)c1 [Example 87, 3-{[2-(3-methoxyphenyl)[1,2,4]triazolo[1,5-c]quinazolin-5-yl]amino}oxetane-3-carboxamide]",4.85e-07,282,
"COc1cccc(-c2nc3c4ccccc4nc(N[C@H](CO)C(=O)O)n3n2)c1 [Example 91, N-[2-(3-methoxyphenyl)[1,2,4]triazolo[1,5-c]quinazolin-5-yl]-D-serine]",> 2e-05,> 20000,
"COc1cccc(-c2nc3c4ccccc4nc(N[C@H](CC(C)C)C(=O)O)n3n2)c1 [Example 93, N-[2-(3-methoxyphenyl)[1,2,4]triazolo[1,5-c]quinazolin-5-yl]-D-leucine]",1.52e-07,427,
"COc1cccc(-c2nc3c4ccccc4nc(N[C@@H](C(N)=O)[C@H](C)OCc4ccccc4)n3n2)c1 [Example 97, O-benzyl-N^2-[2-(3-methoxyphenyl)[1,2,4]triazolo[1,5-c]quinazolin-5-yl]-D-threoninamide]",1.56e-07,84.1,
"COc1cccc(-c2nc3c4ccccc4nc(N[C@@H](CCCCNC(=O)OC(C)(C)C)C(N)=O)n3n2)c1 [Example 101, tert-butyl[(5S)-6-amino-5-{[2-(3-methoxyphenyl)[1,2,4]triazolo[1,5-c]quinazolin-5-yl]amino}-6-oxohexyl]carbamate]",3.48e-06,145,
"CNC(=O)[C@H](C)Nc1nc2ccccc2c2nc(-c3cccc(OC)c3)nn12 [Example 102, N^2-[2-(3-methoxyphenyl)[1,2,4]triazolo[1,5-c]quinazolin-5-yl]-N-methyl-L-alaninamide]",6.01e-07,246,

# Continued by falling IC50 (AHR [1]), values first:
IC50 (AHR [1]) [M],IC50 (AHR [2]; [3]) [nM],SMILES,"IC50 (AHR [2]; read-out: AHR Antagonism Mouse IC50, mouse Hepa 1c1c7 cells, 200 μM kynurenic acid, 20 hours) [nM]"
4.9e-08,52.2,"COc1cccc(-c2nc3c4ccccc4nc(N[C@H](CO)C(N)=O)n3n2)c1 [Example 79, N^2-[2-(3-methoxyphenyl)[1,2,4]triazolo[1,5-c]quinazolin-5-yl]-D-serinamide]",
4.82e-08,4.57,"COc1cccc(-c2nc3c4ccccc4nc(N[C@H]4CCCCNC4=O)n3n2)c1 [Example 76, (3S)-3-{[2-(3-methoxyphenyl)[1,2,4]triazolo[1,5-c]quinazolin-5-yl]amino}azepan-2-one]",
2.44e-08,51.7,"Cc1nc(-c2nc3c4ccccc4nc(N[C@@H]4CCCCNC4=O)n3n2)co1 [Example 70, (3R)-3-{[2-(2-methyl-1,3-oxazol-4-yl)[1,2,4]triazolo[1,5-c]quinazolin-5-yl]amino}azepan-2-one]",
1.29e-08,12.8,"COc1cccc(-c2nc3c4ccccc4nc(N[C@@H](C(N)=O)c4ccccc4)n3n2)c1 [Example 89, (2R)-2-{[2-(3-methoxyphenyl)[1,2,4]triazolo[1,5-c]quinazolin-5-yl]amino}-2-phenylacetamide]",
1.12e-08,2.43,"COC(=O)[C@H](Nc1nc2ccccc2c2nc(-c3cccc(OC)c3)nn12)C(C)C [Example 104, methyl N-[2-(3-methoxyphenyl)[1,2,4]triazolo[1,5-c]quinazolin-5-yl]-D-valinate]",
8.87e-09,12.9,"COc1cccc(-c2nc3c4ccccc4nc(N[C@H](CC(C)C)C(N)=O)n3n2)c1 [Example 82, N^2-[2-(3-methoxyphenyl)[1,2,4]triazolo[1,5-c]quinazolin-5-yl]-D-leucinamide]",
8.63e-09,4.38,"COc1cccc(-c2nc3c4ccccc4nc(N[C@H](C)C(N)=O)n3n2)c1 [Example 92, N^2-[2-(3-methoxyphenyl)[1,2,4]triazolo[1,5-c]quinazolin-5-yl]-D-alaninamide]",
6.43e-09,5.53,CCn1cc(-c2nc3c4ccccc4nc(N[C@@H]4CCCCNC4=O)n3n2)cn1 [Example 67],
4.54e-09,6.34,"COc1cccc(-c2nc3c4ccccc4nc(N[C@H](Cc4ccccc4)C(N)=O)n3n2)c1 [Example 90, N^2-[2-(3-methoxyphenyl)[1,2,4]triazolo[1,5-c]quinazolin-5-yl]-D-phenylalaninamide]",
4.43e-09,0.345,"COc1cccc(-c2nc3c4ccccc4nc(N[C@@H](C(N)=O)C(C)C)n3n2)c1 [Example 103, N^2-[2-(3-methoxyphenyl)[1,2,4]triazolo[1,5-c]quinazolin-5-yl]-D-valinamide]",
2.57e-09,0.359,"COc1cccc(-c2nc3c4ccccc4nc(N[C@@H]4CCCCNC4=O)n3n2)c1 [Example 75, (3R)-3-{[2-(3-methoxyphenyl)[1,2,4]triazolo[1,5-c]quinazolin-5-yl]amino}azepan-2-one]",
2.11e-09,0.437,"CC[C@@H](Nc1nc2ccccc2c2nc(-c3cccc(OC)c3)nn12)C(N)=O [Example 88, (2R)-2-{[2-(3-methoxyphenyl)[1,2,4]triazolo[1,5-c]quinazolin-5-yl]amino}butanamide]",
1.36e-09,1.01,"CCn1cc(-c2nc3c4ccccc4nc(N[C@@H]4CCCCNC4=O)n3n2)c(C)n1 [Example 66, (3R)-3-{[2-(1-ethyl-3-methyl-1H-pyrazol-4-yl)[1,2,4]triazolo[1,5-c]quinazolin-5-yl]amino}azepan-2-one]",
